molecular target: Galectin-1 (Homo sapiens, UniProt P09382); assay: Biological Assay
Experimental: (§1) The inhibitory activity of compounds is determined in competitive binding assays. This spectrophotometric assay measures the binding of biotinylated human Gal-3 (hGal-3) or human Gal-1 (hGal-1), respectively, to a microplate-adsorbed glycoprotein, asialofetuin (ASF) (Proc Natl Acad Sci USA. 2013 Mar. 26; 110(13):5052-7.). Alternatively, and preferably, a human Gal-1 version in which all six cysteines are substituted by serines may be used. Briefly, compounds are serially diluted in DMSO (working dilutions). ASF-coated 384 well plates are supplemented with 22.8 μL/well of biotinylated hGal-3 or hGal-1 in assay buffer (i.e. 300-1000 ng/mL biotinylated hGal-3 or hGal-1) to which 1.2 μL of compound working dilutions are added and mixed. Plates are incubated for 3 hours at 4° C., then washed with cold assay buffer (3×50 uL), incubated for 1 hour with 25 μL/well of a streptavidin-peroxidase solution (diluted in assay buffer to 80 ng/mL) at 4° C., followed by further washing steps with assay buffer (3×50 uL). Finally, 25 μL/well of ABTS substrate is added.

Sequence of Galectin-1 (P09382 whole entry): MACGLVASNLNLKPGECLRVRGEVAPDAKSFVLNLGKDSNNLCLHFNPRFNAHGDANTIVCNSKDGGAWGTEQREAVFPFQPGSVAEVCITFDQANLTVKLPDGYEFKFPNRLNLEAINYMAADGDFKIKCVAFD

| IC50 | SMILES |
| --- | --- |
| 2090 nM | O=C([C@@H]1O[C@H](CO)[C@H](O)[C@H](n2cc(-c3cc(F)c(F)c(F)c3)nn2)[C@H]1O)N(c1cc(Cl)cc(Cl)c1)[C@H]1CCC[C@@H]1O [US20230348442, Example 1H.1.2] |

molecular target: Galectin-3 (Homo sapiens, UniProt P17931); assay: Biological Assay
Experimental: as §1

Sequence of Galectin-3 (P17931 whole entry): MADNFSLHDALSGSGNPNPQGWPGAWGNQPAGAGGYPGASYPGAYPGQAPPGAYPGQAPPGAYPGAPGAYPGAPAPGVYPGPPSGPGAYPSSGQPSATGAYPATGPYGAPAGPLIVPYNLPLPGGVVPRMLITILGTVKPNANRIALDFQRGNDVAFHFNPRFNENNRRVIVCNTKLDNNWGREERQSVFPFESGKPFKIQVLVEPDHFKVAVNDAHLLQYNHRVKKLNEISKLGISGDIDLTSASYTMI

| IC50 | SMILES |
| --- | --- |
| 25.5 nM | CO[C@@H]1[C@@H](n2cc(-c3cc(F)c(Br)c(F)c3)nn2)[C@@H](O)[C@@H](CO)O[C@H]1C(=O)N(c1cc(Br)cc(C#N)c1)[C@H]1CCC[C@@H]1O [US20230348442, Example 1.6.5] |
| 19.9 nM | N#Cc1cc(Cl)cc(N(C(=O)[C@@H]2O[C@H](CO)[C@H](O)[C@H](n3cc(-c4cc(F)c(Cl)c(F)c4)nn3)[C@H]2O)[C@H]2CCC[C@@H]2O)c1 [US20230348442, Example 1H.5.4] |
| 111 nM | CO[C@@H]1[C@@H](n2cc(-c3cc(F)c(F)c(F)c3)nn2)[C@@H](O)[C@@H](CO)O[C@H]1C(=O)N(c1cc(C)cc(Br)c1)[C@H]1CC[C@@H]1O [US20230348442, Example 2.1.12] |
| 69.2 nM | CO[C@@H]1[C@@H](n2cc(-c3cc(F)cc(Br)c3)nn2)[C@@H](O)[C@@H](CO)O[C@H]1C(=O)N(c1cc(Br)cc(C#N)c1)[C@H]1CCC[C@@H]1O [US20230348442, Example 1.10.5] |
| 29.4 nM | O=C([C@@H]1O[C@H](CO)[C@H](O)[C@H](n2cc(-c3cc(F)c(F)c(F)c3)nn2)[C@H]1O)N(c1cc(Cl)cc(Cl)c1)[C@H]1CCC[C@@H]1O [US20230348442, Example 1H.1.2] |
